In patent publication US20070275961A1, “Triazolo ' 1, 5-A ! Pyrimidines and Their Use in Medicine” (VERNALIS (CAMBRIDGE) LIMITED., priority 2003, published 2007):
Like-named read-outs stand apart in the source and are kept apart here.

Columns and labels:
Format in all cases: biochemical
[1] = biological target: CDK2 enzyme, complexed with cyclin A (Homo sapiens, UniProt P24941); experiment: CDK2 cyclin dependent kinase assay, phosphorylation of synthetic peptide […] (33P-ATP filtration); details: 0.1 mM ATP
Procedure: (§1) The assay mixture containing the inhibitor and CDK2 enzyme, complexed with cyclin A (0.4 U/ml) was mixed together in a microtiter plate in a final volume of 50 μl and incubated for 40 min at 30° C. The assay mixture contained 0.1 mM unlabeled ATP, 0.01 μCi/μl ^33P-γ-ATP, 0.03 mM peptide, 0.1 mg/ml BSA, 7.5 mM magnesium acetate, 50 mM HEPES-NaOH, pH 7.5. The reaction was stopped by adding 50 μl of 50 mM phosphoric acid. 90 μl of the mixture were transferred to a pre-wetted 96-well Multiscreen MAPHNOB filtration plate (Millipore) and filtered on a vacuum manifold. The filter plate was washed with three successive additions of 200 μl 50 mM phosphoric acid and then with 100 μl methanol. The filtration plate was dried for 10 min at 65° C., scintillant added and phosphorylated peptide quantified in a scintillation counter (Trilux, PerkinElmer).
HEPES is N-[2-hydroxyethyl]piperazine-N′-[2-ethanesulfonic acid]. BSA is bovine serum albumin.

PDK1 enzyme = biological target: T1, PDK1 enzyme (Homo sapiens, UniProt O15530); experiment: PDK1 3'-phosphoinositide-dependent kinase assay, phosphorylation of synthetic peptide (33P-ATP filtration); details: 0.01 mM ATP, read-out: PDK1 IC50
T1 sequence (O15530 1-556): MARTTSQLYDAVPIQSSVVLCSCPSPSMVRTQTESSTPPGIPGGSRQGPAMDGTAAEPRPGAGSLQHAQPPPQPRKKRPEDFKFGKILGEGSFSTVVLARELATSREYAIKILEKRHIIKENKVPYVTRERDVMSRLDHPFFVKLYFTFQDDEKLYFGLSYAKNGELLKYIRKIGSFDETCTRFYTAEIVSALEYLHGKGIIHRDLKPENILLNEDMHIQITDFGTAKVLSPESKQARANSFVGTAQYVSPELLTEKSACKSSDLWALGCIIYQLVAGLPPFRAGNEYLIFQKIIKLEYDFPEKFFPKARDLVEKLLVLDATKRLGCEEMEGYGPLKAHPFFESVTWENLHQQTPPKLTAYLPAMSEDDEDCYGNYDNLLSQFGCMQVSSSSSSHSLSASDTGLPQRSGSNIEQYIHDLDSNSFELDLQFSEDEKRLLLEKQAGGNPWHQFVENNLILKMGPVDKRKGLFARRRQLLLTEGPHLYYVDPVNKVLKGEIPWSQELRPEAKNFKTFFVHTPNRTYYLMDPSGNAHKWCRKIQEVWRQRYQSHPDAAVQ
Procedure: as §1, with “and PDK1 enzyme” for “and CDK2 enzyme, complexed with cyclin A (0.4 U/ml)”, “for 60” for “for 40”, “contained 0.01” for “contained 0.1”, “^33P-γ-ATP, 0.075” for “^33P-γ-ATP, 0.03”, “acetate, 0.05 M Tris.HCl,” for “acetate, 50 mM HEPES-NaOH,”, “pH 7.5, 0.5% 2-mercaptoethanol.” for “pH 7.5.”

Chk1 = biological target: T2, Chk1 (Homo sapiens, UniProt O14757); experiment: Chk1 kinase assay, phosphorylation of Chktide (33P-ATP filtration); details: 0.01 mM ATP, read-out: Chk1 IC50
T2 sequence (O14757 1-476): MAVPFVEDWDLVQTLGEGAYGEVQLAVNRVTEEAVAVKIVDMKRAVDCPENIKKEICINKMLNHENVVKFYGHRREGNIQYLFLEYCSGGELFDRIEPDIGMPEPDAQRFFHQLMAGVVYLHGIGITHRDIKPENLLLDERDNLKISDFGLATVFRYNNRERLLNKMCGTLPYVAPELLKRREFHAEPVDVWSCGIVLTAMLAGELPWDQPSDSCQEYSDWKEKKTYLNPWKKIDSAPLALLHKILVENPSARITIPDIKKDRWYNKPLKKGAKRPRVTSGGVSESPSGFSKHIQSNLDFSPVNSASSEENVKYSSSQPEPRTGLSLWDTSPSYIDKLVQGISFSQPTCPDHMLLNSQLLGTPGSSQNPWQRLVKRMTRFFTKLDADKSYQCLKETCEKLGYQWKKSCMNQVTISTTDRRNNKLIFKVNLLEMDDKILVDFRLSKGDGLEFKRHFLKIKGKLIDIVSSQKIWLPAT
Procedure: Assays for the Chk1 kinase activity were carried out by monitoring the phosphorylation of a synthetic peptide Chktide with the amino acid sequence, […]. The assay mixture containing the inhibitor and Chk1 enzyme was mixed together in a microtiter plate in a final volume of 50 μl and incubated for 40 minutes at 30° C.
The assay mixture contained 0.01 mM unlabeled ATP, 0.5 μCi ^33P-γ-ATP, 30 μM Chktide, 0.1 mg/ml BSA, 50 mM Hepes-NaOH pH 7.5 and 11 nM GST-Chk1 enzyme. The reaction was stopped by adding 50 μl of 50 mM phosphoric acid. 90 μl of the mixture was transferred to a pre-wetted 96-well Multiscreen MAPHNOB filtration plate (Millipore) and filtered on a vacuum manifold. The filter plate was washed with three successive additions of 200 μl 50 mM phosphoric acid and then with 100 μl methanol. The filtration plate was dried for 10 min at 65° C., scintillant added and phosphorylated peptide quantified in a scintillation counter (Trilux, PerkinElmer).

Structure (SMILES) | IC50 ([1]; Table 1) | IC50 (PDK1 enzyme; Table 1) | IC50 (Chk1; Table 1) | IC50 ([1]; Table 2) | IC50 (PDK1 enzyme; Table 2) | IC50 (Chk1; Table 2) | other results
NS(=O)(=O)c1ccc(Nc2cc(Nc3cccc(Cl)c3)nc3ncnn23)cc1 [Example 35] | 1.72 µM | 48 µM | 40.5 µM |  |  |  | 
CN(C)S(=O)(=O)c1ccc(Nc2cc(N[C@H]3CC[C@H](N)CC3)nc3ncnn23)cc1 [Example 83] |  |  |  | 0.27 µM | 43.3 µM | 93.4 µM | 
CN(C)c1ccc(Nc2cc(Nc3ccc(S(C)(=O)=O)cc3)n3ncnc3n2)cc1 [Example 91] |  |  |  | 4.83 µM | > 200 µM | 14.2 µM | 
NC(=O)COc1cccc(-c2cc(Nc3ccc(C(N)=O)cc3)nc3ncnn23)c1 [Example 157] |  |  |  |  |  |  | IC50 ([1]; Table 4): 6.56 µM; IC50 (PDK1 enzyme; Table 4): 4.82 µM; IC50 (Chk1; Table 4): 6.05 µM
CS(=O)(=O)c1ccc(Nc2cc(NCC34CC5CC(CC(C5)C3)C4)nc3ncnn23)cc1 [Example 99] |  |  |  | 25.7 µM | > 200 µM | > 200 µM | 
Clc1cc(NCc2ccncc2)n2ncnc2n1 [Example 56] | 43.3 µM | > 200 µM | > 200 µM |  |  |  | 
Clc1cc(Nc2ccc3cn[nH]c3c2)n2ncnc2n1 [Example 48] | 13.5 µM | > 200 µM | > 200 µM |  |  |  | 
NS(=O)(=O)c1ccc(Nc2cc(-c3cccc(C(=O)O)c3)nc3ncnn23)cc1 [Example 27] | 14.3 µM | > 200 µM | > 200 µM |  |  |  | 
Clc1cc(NCc2ccccc2)n2ncnc2n1 [Example 6] | 85 µM | > 200 µM | > 200 µM |  |  |  | 
OCCc1ccc(Nc2cc(-c3cccc(F)c3)n3ncnc3n2)cc1 [Example 111] |  |  |  |  |  |  | IC50 ([1]; Table 3): > 200 µM; IC50 (PDK1 enzyme; Table 3): 52.2 µM; IC50 (Chk1; Table 3): 9.57 µM
CCOc1cc(Nc2ccc(S(N)(=O)=O)cc2)n2ncnc2n1 [Example 12] | 13 µM | > 200 µM | > 200 µM |  |  |  | 
CCN(CC)c1cc(Nc2ccc(S(C)(=O)=O)cc2)n2ncnc2n1 [Example 65] |  |  |  | 0.94 µM | > 200 µM | > 200 µM | 
CCOc1cc(Nc2ccc(S(N)(=O)=O)cc2)n2ncnc2n1 [Example 62] |  |  |  | 13 µM | > 200 µM | > 200 µM | 
CCN(CC)c1cc(Nc2ccc(C(N)=O)cc2)n2ncnc2n1 [Example 92] |  |  |  | 1.49 µM | > 200 µM | > 200 µM | 
CCOC(=O)Cc1ccc(Nc2cc(-c3cccc(F)c3)n3ncnc3n2)cc1 [Example 133] |  |  |  |  |  |  | IC50 ([1]; Table 3): > 200 µM; IC50 (PDK1 enzyme; Table 3): 2.25 µM; IC50 (Chk1; Table 3): 8.84 µM
N[C@H]1CC[C@H](Nc2cc(Nc3ccc(S(=O)(=O)c4ccccc4)cc3)n3ncnc3n2)CC1 [Example 98] |  |  |  | 0.26 µM | 14.2 µM | 2.19 µM | 
NS(=O)(=O)c1ccc(Nc2cc(Oc3ccccc3)nc3ncnn23)cc1 [Example 13] | 20.1 µM | > 200 µM | > 200 µM |  |  |  | 
CS(=O)(=O)c1ccc(Nc2cc(Cl)nc3ncnn23)cc1 [Example 18] | 0.82 µM | > 200 µM | > 200 µM |  |  |  | 
CCN(CC)c1cc(Nc2ccc(S(N)(=O)=O)cc2)n2ncnc2n1 [Example 4, 4-(5-Diethylamino-[1,2,4]triazolo[1,5-a]pyrimidine-7-ylamino)-benzenesulfonamide] | 0.39 µM | > 200 µM | > 200 µM |  |  |  | 

Structure (SMILES) | IC50 ([1]; Table 1) | IC50 (PDK1 enzyme; Table 1) | IC50 (Chk1; Table 1) | IC50 ([1]; Table 2) | IC50 (PDK1 enzyme; Table 2) | IC50 (Chk1; Table 2) | other results
NS(=O)(=O)c1ccc(Nc2cc(NC3CCCC3)nc3ncnn23)cc1 [Example 11] | 0.55 µM | > 200 µM | > 200 µM |  |  |  | 
CS(=O)(=O)c1ccc(Nc2cc(N3CCC(C(N)=O)CC3)nc3ncnn23)cc1 [Example 89] |  |  |  | 36 µM | > 200 µM | > 200 µM | 
Cc1cccc(-c2cc(Nc3ccc(CCO)cc3)nc3ncnn23)c1 [Example 107] |  |  |  |  |  |  | IC50 ([1]; Table 3): > 200 µM; IC50 (PDK1 enzyme; Table 3): 14.7 µM; IC50 (Chk1; Table 3): 42.2 µM
CCN(CC)CCNC(=O)c1ccc(Nc2cc(Cl)nc3ncnn23)cc1 [Example 39] | 42.8 µM | > 200 µM | > 200 µM |  |  |  | 
NCCOc1cccc(-c2cc(Nc3ccc(C(N)=O)cc3)nc3ncnn23)c1 [Example 151] |  |  |  |  |  |  | IC50 ([1]; Table 4): 47.5 µM; IC50 (PDK1 enzyme; Table 4): 0.25 µM; IC50 (Chk1; Table 4): 3 µM
NS(=O)(=O)c1ccc(Nc2cc(NC(CCO)c3ccccc3)nc3ncnn23)cc1 (stereo not drawn) [Example 10] | 5.74 µM | > 200 µM | > 200 µM |  |  |  | 
CC(C)c1cc(Nc2ccc(C(N)=O)cc2)nc2ncnn12 [Example 115] |  |  |  |  |  |  | IC50 ([1]; Table 3): 148 µM; IC50 (PDK1 enzyme; Table 3): > 200 µM; IC50 (Chk1; Table 3): 83.7 µM
CC(C)COc1cc(Nc2ccc(S(N)(=O)=O)cc2)n2ncnc2n1 [Example 14] | 1.85 µM | > 200 µM | > 200 µM |  |  |  | 
Clc1cc(Nc2ccccc2)n2ncnc2n1 [Example 75] |  |  |  | 62.8 µM | > 200 µM | > 200 µM | 
NS(=O)(=O)c1ccc(Nc2cc(-c3cccc(F)c3)n3ncnc3n2)cc1 [Example 118] |  |  |  |  |  |  | IC50 ([1]; Table 3): 116 µM; IC50 (PDK1 enzyme; Table 3): 6.28 µM; IC50 (Chk1; Table 3): 1.54 µM
CS(=O)(=O)c1ccc(Nc2cc(N[C@H]3CC[C@H](N)CC3)nc3ncnn23)cc1 [Example 84] |  |  |  | 0.25 µM | 107 µM | > 200 µM | 
CCOC(=O)c1ccc(Nc2cc(Cl)nc3ncnn23)cc1 [Example 53] | > 200 µM | > 200 µM | > 200 µM |  |  |  | 
Cc1cc(Nc2ccc(S(C)(=O)=O)cc2)n2ncnc2n1 [Example 77] |  |  |  | 124 µM | > 200 µM | > 200 µM | 
CN(C)S(=O)(=O)c1ccc(Nc2cc(-c3cccc(F)c3)n3ncnc3n2)cc1 [Example 129] |  |  |  |  |  |  | IC50 ([1]; Table 3): > 200 µM; IC50 (PDK1 enzyme; Table 3): 30.6 µM; IC50 (Chk1; Table 3): 12.2 µM
CS(=O)(=O)c1ccc(CNc2cc(N[C@H]3CC[C@H](N)CC3)nc3ncnn23)cc1 [Example 100] |  |  |  | 2.95 µM | > 200 µM | > 200 µM | 
CC(=O)Nc1cccc(Nc2cc(-c3cccc(F)c3)n3ncnc3n2)c1 [Example 131] |  |  |  |  |  |  | IC50 ([1]; Table 3): > 200 µM; IC50 (PDK1 enzyme; Table 3): 69.4 µM; IC50 (Chk1; Table 3): 26.3 µM
CC(C)c1cc(Nc2ccc(S(C)(=O)=O)cc2)n2ncnc2n1 [Example 78] |  |  |  | 7.42 µM | > 200 µM | > 200 µM | 
NS(=O)(=O)c1ccc(Nc2cc(N3CCOCC3)nc3ncnn23)cc1 [Example 24] | 15.7 µM | > 200 µM | > 200 µM |  |  |  | 
